Data on three compounds can be found in patent publication US6194416A, “Heterocyclic compounds and their use” (Eli Lilly and Company, priority 1997, dated 2001).

Usually Ki stands for the equilibrium dissociation constant of an inhibitor or competing ligand from its target. The IC50 is the concentration that gives 50% inhibition.

The target of assay [1] is nicotinic receptors. In words: Nicotinic channel receptor binding: [3H]-cystine binding to crude synaptic membranes from whole rat brain. To be noted: 1.25 nM [3H-cystine], about 60 min, about 4° C. Here is the method: Nicotinic Channel Receptor Binding Protocol:
The activity of the compounds claimed herein at the nicotinic receptor can be accomplished by the following assay.
Binding of […] to nicotinic receptors was accomplished using crude synaptic membrane preparations from whole rat brain (Pabreza et al. Molecular Pharmacol., 1990, 39:9). Washed membranes were stored at about -80° C. prior to use. Frozen aliquots were slowly thawed and resuspended in 20 volumes of buffer (containing: […] NaCl, 5 mM KCl, 2 mM MgCl2, 2 mM Tris-Cl, ph 7.4 @4° C.). After centrifuging at 20,000×g for 15 minutes, the pellets were resuspended in about 30 volumes of buffer. Homogenate (containing about 125-150 ug protein) was added to tubes containing concentrations of test compound and [^3 H-cystine] (1.25 nM) in a final volume of 500 uL. Samples were incubated for about 60 minutes at about 4° C., then rapidly filtered through GF/B filters presoaked in 0.5% polyethylimine using 3×4 mL of ice cold buffer. The filters were counted.

Assay [2] concerns the target muscarinic acetylcholine receptors. Briefly: Inhibition of specific binding of 3H-Oxotremorine-M (3H-Oxo) to rat cortex membranes. More on the design: species or system male Wistar rats. As to conditions: 1.0 nM 3H-Oxotremorine, 30 min, 25° C., pH 7.4. An excerpt:
The pharmacological properties of the compounds of the invention can be illustrated by determining their capability to inhibit the specific binding of ^3 H-Oxotremorine-M (^3 H-Oxo). Birdsdall N. J. M., Hulme E. C., and Burgen A. S. V. (1980). "The Character of Muscarinic Receptors in Different Regions of the Rat Brain". Proc. Roy. Soc. London (Series B) 207,1.
^3 H-Oxo labels muscarinic receptor in the CNS (with a preference for agonist domains of the receptors). Three different sites are labeled by ^3 H-Oxo. […] Using the present experimental conditions only the high and medium affinity sites are determined.
The inhibitory effects of compounds on ^3 H-oxo binding reflects the affinity for muscarinic acetylcholine receptors.
All preparations are performed at 0-4° C. unless otherwise indicated. Fresh cortex (0.1-1 g) from male Wistar rats (150-250 g) is homogenized for 5-10 s in 10 mL […] Hepes pH: 7.4, with an Ultra-Turrax homogenizer. The homogenizer is rinsed with 10 mL of buffer and the combined suspension centrifuged for 15 min. at 40,000×g. The pellet is washed three times with buffer. In each step the pellet is homogenized as before in 2×10 mL of buffer and centrifuged for 10 min. at 40,000×g.
The final pellet is homogenized in 20 mM Hepes pH: 7.4 (100 mL per g of original tissue) and used for binding assay. Aliquots of 0.5 mL is added 25 μL of test solution and 25 μL of ^3 H-Oxotremorine (1.0 nM, final concentration) mixed and incubated for 30 min. at 25° C. Non-specific binding is determined in triplicate using arecoline (1 μg/mL, final concentration) as the test substance. After incubation samples are added 5 mL of ice-cold buffer and poured directly onto Whatman GF/C glass fiber filters under suction and immediately washed 2 times with 5 mL of ice-cold buffer. The amount of radioactivity on the filters are determined by conventional liquid scintillation counting. Specific binding is total binding minus non specific binding.
Test substances are dissolved in 10 mL water (if necessary heated on a steam-bath for less than 5 min.) at a concentration of 2.2 mg/mL. 25-75% inhibition of specific binding must be obtained before calculation of IC50. The test value will be given as IC50 (the concentration (nM) of the test substance which inhibits the specific binding of ^3 H-oxo by 50%). IC50 =(applied test substance concentration) x([…])nM where Co is specific binding in control assays and Cx is the specific binding in the test assay. (The calculations assume normal mass-action kinetics).

Assay [3] addresses T1, muscarinic receptors (M1-site, pirenzepine sensitive site) (Rattus norvegicus, UniProt P08482).
T1 construct: from tissue; host or cells: cerebral cortex membranes of male Wistar rats
T1 sequence (P08482 1-460): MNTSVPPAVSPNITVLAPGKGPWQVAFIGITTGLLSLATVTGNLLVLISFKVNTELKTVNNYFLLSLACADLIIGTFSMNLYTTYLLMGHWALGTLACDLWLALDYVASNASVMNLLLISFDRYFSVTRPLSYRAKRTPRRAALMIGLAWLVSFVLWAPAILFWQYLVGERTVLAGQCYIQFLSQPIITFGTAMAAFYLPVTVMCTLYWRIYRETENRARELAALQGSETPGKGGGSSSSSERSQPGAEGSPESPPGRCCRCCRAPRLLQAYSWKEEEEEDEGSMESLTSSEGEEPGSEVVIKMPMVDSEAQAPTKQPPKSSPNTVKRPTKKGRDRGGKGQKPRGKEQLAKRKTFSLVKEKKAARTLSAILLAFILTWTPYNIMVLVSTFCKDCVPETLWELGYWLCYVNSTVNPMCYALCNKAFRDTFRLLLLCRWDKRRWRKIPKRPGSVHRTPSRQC
Briefly: Inhibition of 3HPRZ (pirenzepine, [N-methyl-3H]) binding to rat cerebral cortex membranes. More on the design: species or system male Wistar rats. As to conditions: rat cerebral cortex, 1.0 nM 3HPRZ, 60 min, 20° C., pH 7.4; read-out: 3HPRZ IC50. The procedure: Furthermore the pharmacological properties of the compounds of the invention can also be illustrated by determining their capability to inhibit ^3 HPRZ (pirenzepine, [N-methyl-^3 H]) binding to rat cerebral cortex membranes.
Pirenzepine binds selectively to subtype of muscarinic receptors. Historically the type is named the M1 -site, whereas pirenzepine sensitive site would be more appropriate.
All preparations are performed at 0-4° C. unless otherwise indicated. Fresh cortex ([…]) from male Wistar rats (150-200 g) is homogenized for 5-10 s in 10 mL 20 mM Hepes pH: 7.4, with an Ultra-Turrax homogenizer. The homogenizer is rinsed with 2×10 mL of buffer and the combined suspension centrifuged for 15 min. at 40,000×g. The pellet is washed three times with buffer. In each step the pellet is homogenized as before in 3×10 mL of buffer and centrifuged for 10 min. at 40,000×g.
The final pellet is homogenized in 20 MM Hepes pH: 7.4 (100 mL per g of original tissue) and used for binding assay. Aliquots of 0.5 mL is added 20 μL of test solution and 25 μL of ^3 HPRZ (1.0 nM, final conc.), mixed and incubated for 60 min. at 20° C. Non-specific binding is determined in triplicate using atropine (1.0 μg/mL, final conc.) as the test substance. After incubation samples are added 5 mL of ice-cold buffer and poured directly onto Whatman GF/C glass fiber filters under suction and immediately washed 2 times with 5 mL of ice-cold buffer.
The amount of radioactivity on the filters are determined by conventional liquid scintillation counting. Specific binding is total binding minus non-specific binding.
Test substances are dissolved in 10 mL water, at a concentration of 0.22 mg/mL. 25-75% inhibition of specific binding must be obtained before calculation of IC50.
The test value will be given as IC50 (the concentration (nM) of the test substance which inhibits the specific binding of ^3 HPRZ by 50%). IC50 =(applied test substance concentration) x(Cx /Co -Cx)nM where Co is specific binding in control assays and Cx is the specific binding in the test assay. (The calculations assume normal mass-action kinetics).

Assay [4] relates to M2-sites of muscarinic receptors. To be noted: general statement; cited from earlier work.
Assay [5] relates to M1-sites of muscarinic receptors. As to conditions: general statement; cited from earlier work.

For `c1cnc(O[C@H]2CN3CCC[C@@H]2C3)cn1` (relative stereo) [Compound 21, 2-[endo-(+,-)-6-(1-azabicyclo[3.2.1]octyloxy)]-pyrazine], the Ki in assay [1] was 0.13 µM. The results for the IC50 in assay [2] and in assay [3] were 0.026 µM and 0.123 µM, respectively.

Compound `Clc1cncc(O[C@@H]2CN3CCC[C@H]2C3)n1` (relative stereo) [Compound 22, 6-Chloro-2-[endo-(+,-)-6-(1-azabicyclo[3.2.1]octyloxy)]-pyrazine] yielded a Ki in assay [1] of 0.21 µM. Further, the IC50 in assay [2] is 0.14 µM; in assay [3], 0.052 µM.

`CN1CCN(CC(=O)N2c3ccccc3C(=O)Nc3cccnc32)CC1` [pirenzepine]: the “interaction with M2-sites” value in assay [4] is “also interact with M2 -sites”. In assay [5], the muscarinic subtype selectivity entry was “selective for M1 -sites”.
